Here are results for 24 compounds from ChEMBL document CHEMBL1143807, “Design and synthesis of oxime ethers of alpha-acyl-beta-phenylpropanoic acids as PPAR dual agonists” (Bioorg Med Chem Lett, 2007).

Broadly, the EC50 is the concentration at which the effect is half-maximal. As a reminder, the AUC(0-t) is exposure summed from dosing to a finite time, without extrapolation to infinity. A word on the Cmax: it is the maximum level reached in the sampled fluid or tissue. For orientation: Tmax means the time at which the peak concentration occurs. Usually half-life stands for how long it takes for the measured level to halve. What is called clearance is a measure of how efficiently the substance is removed, as volume per time. What is called bioavailability is dose-corrected exposure relative to a reference, in per cent.

Series [1] concerns the target T1, Peroxisome proliferator-activated receptor alpha (Homo sapiens, UniProt Q07869).
T1 sequence (Q07869 whole entry): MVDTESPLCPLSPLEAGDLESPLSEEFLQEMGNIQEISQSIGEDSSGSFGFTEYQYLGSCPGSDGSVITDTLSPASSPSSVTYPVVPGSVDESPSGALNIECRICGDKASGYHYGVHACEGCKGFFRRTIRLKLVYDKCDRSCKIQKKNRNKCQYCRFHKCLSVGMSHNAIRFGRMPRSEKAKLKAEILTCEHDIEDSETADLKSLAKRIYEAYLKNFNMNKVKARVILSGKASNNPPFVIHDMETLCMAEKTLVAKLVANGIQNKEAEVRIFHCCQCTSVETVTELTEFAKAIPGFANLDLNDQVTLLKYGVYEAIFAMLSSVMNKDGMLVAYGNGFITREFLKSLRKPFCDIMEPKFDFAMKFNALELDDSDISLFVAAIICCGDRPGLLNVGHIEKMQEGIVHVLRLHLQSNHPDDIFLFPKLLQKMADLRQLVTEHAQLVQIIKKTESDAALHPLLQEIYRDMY
In words: Agonist activity at human PPARalpha in HepG2 cells by PPAR-GAL4 transactivation assay. The class given is functional, cell-based.

For series [2], the target named is T2, Peroxisome proliferator-activated receptor gamma (Homo sapiens, UniProt P37231).
T2 sequence (P37231 whole entry): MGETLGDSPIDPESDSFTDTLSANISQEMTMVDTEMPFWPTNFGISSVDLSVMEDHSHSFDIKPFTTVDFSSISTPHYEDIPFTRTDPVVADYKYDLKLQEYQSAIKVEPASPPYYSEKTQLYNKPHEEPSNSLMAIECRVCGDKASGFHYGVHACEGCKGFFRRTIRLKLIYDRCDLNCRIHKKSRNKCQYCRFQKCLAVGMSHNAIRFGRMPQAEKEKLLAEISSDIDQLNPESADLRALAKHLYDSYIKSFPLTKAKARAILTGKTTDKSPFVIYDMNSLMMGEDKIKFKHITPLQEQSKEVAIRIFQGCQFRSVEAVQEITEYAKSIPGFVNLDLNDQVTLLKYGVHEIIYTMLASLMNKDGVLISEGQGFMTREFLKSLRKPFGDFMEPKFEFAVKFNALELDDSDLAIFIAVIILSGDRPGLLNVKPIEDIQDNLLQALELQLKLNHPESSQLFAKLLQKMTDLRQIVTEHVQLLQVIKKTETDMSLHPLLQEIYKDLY
Description: Agonist activity at human PPARgamma in HepG2 cells by PPAR-GAL4 transactivation assay

Series [3] concerns Mus musculus. Briefly: Decrease in plasma glucose level in db/db mouse at 1 mg/kg, po. In kind it is functional. More on the design: scale not given: the % may be the effect or the level left.
Series [4] deals with Mus musculus. Briefly: Decrease in plasma triglyceride level in db/db mouse at 1 mg/kg, po. In kind it is functional. More on the design: scale not given: the % may be the effect or the level left.
The nature of series [5]: AUC (0-24 hrs) in Sprague-Dawley rat at 10mg/kg, po. In kind it is ADME, organism-based. More on the design: dose 10 mg/kg, time < 24 hr, route oral. To be noted: plasma.
Series [6] in a line: AUC (0-24 hrs) in Sprague-Dawley rat at 5 mg/kg, iv. In kind it is ADME, organism-based. Set-up: time < 24 hr, dose 5 mg/kg, route intravenous. The note with it: plasma.
A short description of series [7]: Cmax in Sprague-Dawley rat at 10 mg/kg, po. In kind it is ADME, organism-based. Set-up: dose 10 mg/kg, route oral. To be noted: in vivo.
Series [8] can be described thus: Tmax in Sprague-Dawley rat at 10 mg/kg, po. In kind it is ADME, organism-based. Set-up: dose 10 mg/kg, route oral. To be noted: in vivo.
Series [9] can be described thus: Half life in Sprague-Dawley rat at 10 mg/kg, po. To be noted: in vivo. Set-up: dose 10 mg/kg, route oral. The class given is ADME, organism-based.
Series [10] can be described thus: Half life in Sprague-Dawley rat at 5 mg/kg, iv. In kind it is ADME, organism-based. Set-up: dose 5 mg/kg, route intravenous. To be noted: in vivo.
Series [11] can be described thus: Clearance in Sprague-Dawley rat at 5 mg/kg, iv. Set-up: dose 5 mg/kg, route intravenous. The class given is ADME, organism-based. To be noted: in vivo.
Series [12] is described as follows: Volume of distribution in Sprague-Dawley rat at 5 mg/kg, iv. To be noted: in vivo, read-out: Vdss. More on the design: dose 5 mg/kg, route intravenous. The class given is ADME, organism-based.
A short description of series [13]: Bioavailability in Sprague-Dawley rat at 10 mg/kg, po. In kind it is ADME, organism-based. The note with it: in vivo.
Series [14] has as its system Mus musculus. In words: Decrease in plasma glucose level in db/db mouse at 0.1 mg/kg, po. The class given is functional. Set-up: scale not given: the % may be the effect or the level left.
Series [15] deals with Mus musculus. In words: Decrease in plasma glucose level in db/db mouse at 10 mg/kg, po. More on the design: scale not given: the % may be the effect or the level left. The class given is functional.
In series [16] the test system is Mus musculus. In words: Decrease in plasma triglyceride level in db/db mouse at 0.1 mg/kg, po. In kind it is functional. Set-up: scale not given: the % may be the effect or the level left.
Series [17] deals with Mus musculus. In words: Decrease in plasma triglyceride level in db/db mouse at 10 mg/kg, po. In kind it is functional. More on the design: scale not given: the % may be the effect or the level left.

With `CCCO/N=C(\C)C(Cc1ccc(OCCc2nc(-c3ccc(F)cc3)oc2C)cc1)C(=O)O` (stereo not given), the EC50 in series [1] came to 4 nM; in series [2], 2.1 nM.

For `CCCCO/N=C(\C)C(Cc1ccc(OCCc2nc(-c3ccccc3)oc2C)cc1)C(=O)O` (stereo not given), the EC50 in series [1] was determined as 1.3 nM; in series [2], 0.19 nM.

In the case of `CCO[C@@H](Cc1ccc(OCCc2ccc(OS(C)(=O)=O)cc2)cc1)C(=O)O` [TESAGLITAZAR], the EC50 turned out to be 9800 nM in [1] and 3530 nM in series [2]. The values for the Activity with Mus musculus [3] and in the series on Mus musculus [4] were 68% and 38%, respectively.

As for `CCCO/N=C(\C)C(Cc1ccc(OCCc2nc(C(C)C)oc2C)cc1)C(=O)O` (stereo not given), the EC50 in [1] was 10 nM; in series [2], 5.2 nM.

Turning to `C/C(=N\OCCF)C(Cc1ccc(OCCc2nc(-c3ccc(F)cc3)oc2C)cc1)C(=O)O` (stereo not given), the results for the EC50 in series [1] and in [2] were 3.5 nM and 2.9 nM, respectively.

Consider `CCCO/N=C(\C)C(Cc1ccc(OCc2nc(-c3ccccc3)oc2C)cc1)C(=O)O` (stereo not given), for which the EC50 was 19 nM in series [1] and 13 nM in [2]. Also, the AUC(0-t) at 24 h is 162 µg·h/mL in series [5] and 113 µg·h/mL in series [6]. Moreover, the Cmax in series [7] stood at 22600 ng/mL. Further, the Tmax in series [8] is 0.5 h. Also, the half-life is 8.05 h in series [9] and 5.93 h in series [10]. In series [11], this compound returned a clearance of 0.8 mL/min/kg. For the same compound, in series [12], the Vd was 0.329 L/kg. For the same compound, the bioavailability in series [13] stood at 75.5%. Moreover, the Activity is listed as 8% in the series on Mus musculus [14]; 56% with Mus musculus [3]; 73% in the series on Mus musculus [15]; 43% in the series on Mus musculus [16]; 41% with Mus musculus [4]; 58% in the series with Mus musculus [17].

For `CO/N=C(\C)C(Cc1ccc(OCCc2nc(-c3ccccc3)oc2C)cc1)C(=O)O` (stereo not given), the EC50 was determined as 19 nM in series [1] and 2.1 nM in series [2].

As for `CCO/N=C(\C)C(Cc1ccc(OCc2nc(C(C)C)oc2C)cc1)C(=O)O` (stereo not given), the EC50 in [1] is 1240 nM; in series [2], 48 nM.

`C/C(=N\OCC(C)C)C(Cc1ccc(OCCc2nc(-c3ccccc3)oc2C)cc1)C(=O)O` (stereo not given): the EC50 was 2.2 nM in [1] and 0.3 nM in [2].

With `CCO/N=C(\C)C(Cc1ccc(OCCc2nc(-c3ccccc3)oc2C)cc1)C(=O)O` (stereo not given), the values for the EC50 in series [1] and in series [2] were 12 nM and 1 nM, respectively.

Turning to `CC/C(=N\OC)C(Cc1ccc(OCCc2nc(-c3ccccc3)oc2C)cc1)C(=O)O` (stereo not given), the EC50 in series [1] turned out to be 32 nM; in series [2], 0.31 nM.

Turning to `CCO/N=C(\C)C(Cc1ccc(OCc2nc(-c3ccc(F)cc3)oc2C)cc1)C(=O)O` (stereo not given), the EC50 in series [1] was 12 nM; in [2] it was 6.8 nM.

In the case of `CCCO/N=C(\C)C(Cc1ccc(OCCc2nc(-c3ccccc3)oc2C)cc1)C(=O)O` (stereo not given), the EC50 came to 4.9 nM in series [1] and 0.55 nM in [2].

Regarding `CCO/N=C(\C)C(Cc1ccc(OCc2nc(-c3ccccc3)oc2C)cc1)C(=O)O` (stereo not given), the figures for the EC50 in series [1] and in [2] were 91 nM and 4 nM, respectively.

With `C/C(=N\OCc1ccc(F)cc1)C(Cc1ccc(OCCc2nc(-c3ccccc3)oc2C)cc1)C(=O)O` (stereo not given), the EC50 in [1] was 10.6 nM; in series [2], 0.54 nM.

As for `CCO/N=C(\C)C(Cc1ccc(OCCc2nc(-c3ccc(F)cc3)oc2C)cc1)C(=O)O` (stereo not given), the EC50 is 11.5 nM in series [1] and 3 nM in series [2].

For `CCO/N=C(\CC)C(Cc1ccc(OCCc2nc(-c3ccccc3)oc2C)cc1)C(=O)O` (stereo not given), the EC50 worked out at 26 nM in series [1] and 0.1 nM in [2].

For the compound `C/C(=N/OCc1ccc(F)cc1)C(Cc1ccc(OCCc2nc(-c3ccccc3)oc2C)cc1)C(=O)O` (stereo not given), the EC50 in [1] was 596 nM; in [2] it was 5 nM.

For `CCO/N=C(\C)C(Cc1ccc(OCCc2nc(C(C)C)oc2C)cc1)C(=O)O` (stereo not given), the figures for the EC50 in series [1] and in [2] were 139 nM and 20 nM, respectively.

In the case of `CCCO/N=C(\C)C(Cc1ccc(OCc2nc(-c3ccc(F)cc3)oc2C)cc1)C(=O)O` (stereo not given), the EC50 is 11.7 nM in series [1] and 28 nM in series [2].

On to `CN(CCOc1ccc(CC2SC(=O)NC2=O)cc1)c1ccccn1` (stereo not given) [ROSIGLITAZONE], for which the Activity in the series with Mus musculus [15] and with Mus musculus [17] was 65% each time.

Turning to `C/C(=N\OCC1CC1)C(Cc1ccc(OCCc2nc(-c3ccccc3)oc2C)cc1)C(=O)O` (stereo not given), the EC50 in series [1] was found to be 3.1 nM; in series [2] it was 0.36 nM.

In the case of `CCCO/N=C(\C)C(Cc1ccc(OCc2nc(C(C)C)oc2C)cc1)C(=O)O` (stereo not given), the EC50 in series [1] was 105 nM; in series [2] it was 5 nM.

Take `C/C(=N\OCCF)C(Cc1ccc(OCc2nc(-c3ccc(F)cc3)oc2C)cc1)C(=O)O` (stereo not given): the EC50 in series [1] stood at 23 nM; in series [2] it was 7.7 nM.
